The values that follow come from patent publication US6051712A, “Piperidine derivatives having renin inhibiting activity” (Hoffmann-La Roche Inc., priority 1995, dated 2000).

Counter-ions that a name gives are not always drawn.

The assay deals with T1, human renin (Homo sapiens, UniProt P00797).
T1 sequence (P00797 67-406): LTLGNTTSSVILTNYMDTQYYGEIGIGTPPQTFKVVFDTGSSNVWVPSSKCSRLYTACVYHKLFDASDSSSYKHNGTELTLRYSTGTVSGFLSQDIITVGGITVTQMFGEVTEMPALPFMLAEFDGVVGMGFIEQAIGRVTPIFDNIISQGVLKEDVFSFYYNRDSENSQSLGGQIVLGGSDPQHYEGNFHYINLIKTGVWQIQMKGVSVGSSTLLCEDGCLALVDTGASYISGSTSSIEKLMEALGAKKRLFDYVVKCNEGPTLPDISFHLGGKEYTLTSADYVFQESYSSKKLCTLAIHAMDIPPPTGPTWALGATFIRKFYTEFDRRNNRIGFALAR
The assay is described as follows: In vitro test with pure human renin (angiotensin I production from human tetradecapeptide renin substrate, measured by RIA). It is filed as biochemical. The note with it: pure human renin, pH 7.4, three hours at 37° C. (less 4° C.), human tetradecapeptide substrate, angiotensin I by RIA; read-out: IC50 values (concentration of the inhibitor at which the enzymatic activity is inhibited by 50%). The procedure:
In vitro test with pure human renin
The test is carried out in Eppendorf test tubes. The incubation mixture consists of (1) 100 μl of human renin in buffer A (0.1M sodium phosphate solution, pH 7.4, containing 0.1% bovine serum albumin, 0.1% sodium azide and 1 mM ethylenediaminetetraacetic acid), sufficient for a renin activity of 2-3 ng of angiotensin l/ml/hr.; (2) 145 μl of buffer A: (3) 30 μl of 10 mM human tetradecapeptide renin substrate (hTD) in 10 mM hydrochloric acid: (4) […] of dimethyl sulphoxide with or without inhibitor and (5) 10 μl of a 0.03 molar solution of hydroxyquinoline sulphate in water.
The samples are incubated for three hours at 37° C. and, respectively, 4° C. in triplicate. 2×100 μl samples per test tube are used in order to measure the production of angiotensin I via RIA (standard radioimmunoassay; clinical assay solid phase kit). […] The production of angiotensin I is determined by the difference between the test at 37° C, and that at 4° C.
The following controls are carried out:
(a) Incubation of hTD samples without renin and without inhibitor at 37° C. and 4° C. The difference between these two values gives the base value of the angiotensin I production.
(b) Incubation of hTD samples with renin, but without inhibitor at 37° C. and 4° C. The difference between these values gives the maximum value of the angiotensin I production.
In each sample the base value of the angiotensin I production is subtracted from the angiotensin I production which is determined. The difference between the maximum value and the base value gives the value of the maximum substrate hydrolysis (=100%) by renin.
The IC50 values are determined from a linear regression curve from a logit-log plot.
`O=C(OC(Cc1ccc2ccccc2c1)[C@H]1CNCC[C@@H]1c1ccc(F)cc1)c1ccccc1` (stereo partly drawn) [K, (SR)- or (RS)-1-[(3RS,4SR)-4-(4-fluoro-phenyl)-piperidin-3-yl]-2-naphthalen-2-yl-ethyl benzoate hydrochloride (1:1)]: the IC50 came out at 2600 nM.
For `COc1cc(CO[C@H]2CNC[C@@H](OCc3cc(OC)c(OC)c(OC)c3)[C@@H]2c2ccc(OCCCOCc3ccccc3)cc2)cc(OC)c1OC` [MM, (3R,4s,5S)-4-[4-(3-benzyloxy-propoxy)-phenyl]-3,5-bis-(3,4,5-trimethoxy-benzyloxy)-piperidine] the value was 0.5 nM; for `Fc1ccc([C@H]2CCNC[C@@H]2OCc2cc(OCc3ccccc3)c3ccccc3c2)cc1` [RR, (3R,4R)3-(4-Benzyloxy-naphthalen-2-ylmethoxy)-4-(4-fluoro-phenyl)-piperidne], 270 nM.
As for `Fc1ccc([C@@H]2CCNC[C@H]2OCc2cc(OCc3ccccc3)c3ccccc3c2)cc1` [SS, (3S,4S)3-(4-Benzyloxy-naphthalen-2-ylmethoxy)-4-(4-fluoro-phenyl)-piperidne], the figure is 132000 nM.
